According to publication PMC4021201, “Repositioning: the fast track to new anti-malarial medicines?” (Malaria Journal, 2014):
Starred links: 1 amine or outer side, 2 acyl side, 3 side chain; linkers in the order of their positions; H or OH if unused. Positions of bridges follow the written chain, without caps; N, C: chain ends. Non-standard residues stand in square brackets, D forms with d. Residues, ends and D or L forms follow the SMILES beside them. Chains are numbered I, II in the order given. Actinocin(9to1) = Cc1c2oc3c(C)ccc(C(=O)[*:1])c3nc-2c(C(=O)[*:2])c(N)c1=O; NMeV = CN[C@H](C(=O)O)C(C)C; Sar = CNCC(=O)O

Tests used:
P. falciparum 3D7 [1] = assay: SYBR I dye DNA staining assay (Pfizer), P. falciparum 3D7
Method: (§1) Cultures of P. falciparum 3D7 and K1 (both from David Baker, LSHTM) were maintained in O+ human erythrocytes (Research Red Cells and Blood Transfusion Service). 384-well assay plates contained 250 nL of compound at a serial dilution of 1:3 in 100% DMSO, starting from 200 µM (in the plate i.e. 20 µM final) and minimum and maximum controls. After addition of 50 μL of infected erythrocytes per well, plates were incubated at 37°C for three days in 5% CO2, 5% O2 and 90% N2. […] Percent anti-malarial activity was calculated relative to the minimum and maximum controls for each of the 11 drug concentrations and EC50 values determined from the resulting data plot.

P. falciparum K1 [2] = assay: SYBR I dye DNA staining assay (Pfizer), P. falciparum K1
Method: as §1

P. falciparum K1 [3] = assay: SYBR I dye DNA staining assay (SJCRH), P. falciparum K1; conditions: read-out: EC50 K1
Method: (§2) SJCRH used the SYBR® I dye DNA staining assay, which measures proliferation of P. falciparum in human erythrocytes [27]. Plasmodium falciparum strains 3D7 (chloroquine-sensitive) and K1 (chloroquine-resistant) (American Type Culture Collection [ATCC], Manassas, VA, USA) were maintained using established methods [28]. The assay method is as previously described [29]. […] EC50 values were calculated with the robust investigation of screening experiments (RISE) algorithm with a four-parameter logistic equation.
(§3) This group used the SYBR® I dye DNA staining assay, which measures proliferation of P. falciparum in human erythrocytes [1]. Plasmodium falciparum strains 3D7 (chloroquine-sensitive) and K1 (chloroquine-resistant) (American Type Culture Collection [ATCC], Manassas, VA) were maintained in group O? erythrocytes (Key Biologics, LLC, Memphis, TN) using established methods [2]. Serial dilutions of the test compound in DMSO were prepared to provide 10 concentrations for each compound. […] After addition of 10 µL mixed DNA dye solution in PBS per test well (10× SYBR® I, [Invitrogen, Carlsbad, CA]), 0.5% [vol/vol] Triton X-100, 0.5 mg/mL saponin), plates were shaken for 1 min at 750 rpm and incubated in the dark for 90 min. Fluorescence was measured with an EnVision®spectrophotometer (PerkinElmer, Waltham, MA) [3]. […] EC50 values were calculated with the robust investigation of screening experiments (RISE) algorithm with a four-parameter logistic equation.

P. falciparum 3D7 [4] = assay: SYBR I dye DNA staining assay (SJCRH), P. falciparum 3D7; conditions: read-out: EC50 3D7
Method: as §2, §3

[5] = design: method as in unpublished data provided by Pfizer Inc; conditions: ref unpublished data provided by Pfizer Inc; cited from earlier work
[6] = tested on: P. falciparum Pf3D7^0087/N9; assay: Plasmodium falciparum huSCID humanized mouse model, four-day test; conditions: for reduction of parasitaemia versus vehicle: 10, 30 mg/kg sc target doses, up to maximum tolerated dose; for ED90: parasitaemia at day 7 after infection, once daily for four days, mean (95% CI)
Method: In vivo testing using this model was performed by GSK at Tres Cantos, against P. falciparum 3D7 (in vivo strain Pf3D7^0087/N9generated by GSK using Pf3D7 obtained from Eduardo Dei-Cas, Institute Pasteur, Lille, France [36]) growing in peripheral blood of female NOD-scid IL-2Rγ^null mice engrafted with human erythrocytes, i e, a ‘humanized’ mouse model, following published protocols [36, 37]. Briefly, animals were infected intravenously with 20×10^6 infected erythrocytes on day 0. […] Dosing was initiated at the maximum tolerated dose in mice on day 3 after infection and continued once daily for four days. Each experimental group was n = 3 mice unless otherwise stated. Control animals received vehicle only and a quality control assay used chloroquine at target doses of 3 mg/kg and 7 mg/kg. Venous blood samples for parasitology (2 μL) were taken at days 3, 5, and 7 after infection. Anti-malarial efficacy was assessed using a standard four-day test (i e, at day 7) and blood parasitaemia was measured by fluorescence-activated cell sorting (FACS) analysis [38]. The limit of detection (per cent of P. falciparum) was 0.01%. The number of parasites ×10^6 cells was recorded and data were analysed by non-linear fitting to a logistic equation of log10 (per cent parasitaemia at day 7 after infection) versus the dose level administered.
Per cent parasitaemia at day 7 after infection in treated versus control animals was analysed using a one factor ANOVA with Tukey’s post-test analysis. […] ED90 was calculated similarly. Analysis was performed using WinNonlin 5.2 and GraphPad Prism 5.0.

[7] = Pharmacokinetics in P. falciparum-infected humanized mice; conditions: for Cmax / Tmax: NOD-scid IL-2Rγ^null, mouse; for Cmax / Tmax / AUC (0–t): whole blood; for DNAUC(0–t): dose-normalized AUC(0–t); for DNAUC(0–t) / AUC (0–t): mean (SD)
Method: The pharmacokinetics of compounds after oral administration was determined concurrently in the same mice used for the therapeutic efficacy assay. Samples were taken at 0.25, 0.5, 1, 3, 6, 8, and 24 hours after the first dose. Compound levels were measured in 25 μL blood samples that were mixed with 25 μL of saponin (0.1% in water) and processed under standard liquid–liquid extraction conditions [39]. Pharmacokinetic parameters were calculated using WinNonlin 5.2 non-compartmental analysis.

[8] = tested on: P. falciparum 3D7A strain; assay: Whole-cell [3H] hypoxanthine incorporation assay (GSK); type: cell-based, Plasmodium falciparum; conditions: mean of three independent measures
Method: GSK Tres Cantos used a whole-cell [^3H] hypoxanthine radioisotope incorporation assay to determine per cent parasite inhibition at 48 hours and 96 hours. Plasmodium falciparum 3D7A strain (Malaria Research and Reference Reagent Resource Center MR4; [32]) was maintained as described previously. Parasite growth inhibition assays and EC50 determination were carried out following standard methods. Three independent experiments were conducted for each time duration and test compound.
GlaxoSmithKline, Tres Cantos. A whole-cell [^3H]hypoxanthine radioisotope incorporation assay was performed to determine percent parasite inhibition at 48 h and 96 h. Plasmodium falciparum 3D7A strain (Malaria Research and Reference Reagent Resource Center MR4; http://www.mr4.org), was maintained in human erythrocytes (Transfusions Blood Bank, Madrid) with Albumax II medium, as previously described. Parasite growth inhibition assays and EC50 determination were carried out following standard methods. Briefly, cultures with 0.5% parasitemia and 2.5% hematocrit were incubated with the 2 μM of test drug for 48 h or 96 h. [^3H]hypoxanthine (0.8 μCi/mL) in 10 μL of RPMI was added 24 h before parasites were harvested (Cell Harvester 96™, TOMTEC, Hamden, CT). Incorporated radioactivity was quantified with a Wallac MicroBeta® TriLux (Model 1450 LS, PerkinElmer). Three independent experiments were conducted for each time duration and test compound.

[9] = Plasmodium falciparum, K1, 72 h
[10] = Plasmodium falciparum, 3D7, 72 h
[11] = target dose 10 mg/kg subcutaneous (experimental 6.4 CEP-701, 8.3 CEP-1347)
[12] = target dose 30 mg/kg subcutaneous (experimental 15.0 CEP-701, 22.0 CEP-1347)
[13] = mean (95% CI), SYBR I fluorescence assay, chloroquine-resistant strain, 72 h
[14] = mean (95% CI), SYBR I fluorescence assay, chloroquine-sensitive strain, 72 h
[15] = target dose 50 mg/kg oral (experimental 36 mg/kg)

CCNCc1cncc(-c2ccc3[nH]nc(-c4nc5c(F)cc(F)cc5[nH]4)c3c2)c1C [AG-024322]
EC50 (P. falciparum 3D7 [1]; read-out: EC50 3D7, mean (95% CI), Pfizer SYBR I fluorescence assay): 700 nM | EC50 (P. falciparum K1 [2]; read-out: EC50 K1, mean (95% CI), Pfizer SYBR I fluorescence assay): 400 nM

Nc1nc(N)c2nc(CNc3ccc(C(=O)N[C@@H](CCC(=O)O)C(=O)O)cc3)cnc2n1 [Aminopterin]
EC50 (P. falciparum K1 [3]; [9]): 1250 nM | EC50 (P. falciparum 3D7 [4]; [10]): 320 nM

CC(C)C[C@H](NC(=O)[C@H](Cc1ccccc1)NC(=O)c1cnccn1)B(O)O [Bortezomib]
EC50 (P. falciparum K1 [3]; [9]): 80 nM | EC50 (P. falciparum 3D7 [4]; [10]): 20 nM

COc1cc(Nc2c(C#N)cnc3cc(OCCCN4CCN(C)CC4)c(OC)cc23)c(Cl)cc1Cl [Bosutinib]
EC50 (P. falciparum K1 [3]; [9]): 650 nM | EC50 (P. falciparum 3D7 [4]; [10]): 220 nM

COc1ccc(C(=O)c2cn(C(C)C)c3ncnc(N)c23)cc1NC(=O)Nc1ccc(Cl)cc1Cl [CE-245677]
EC50 (P. falciparum 3D7 [1]; Plasmodium falciparum, 3D7, read-out: EC50 3D7): 1100 nM | EC50 (P. falciparum K1 [2]; Plasmodium falciparum, K1, read-out: EC50 K1): 800 nM | human plasma level with significant central nervous system adverse events [5]: ~ 1.5 μM

CCSCc1ccc2c(c1)c1c3c(c4c5cc(CSCC)ccc5n5c4c1n2[C@H]1C[C@](O)(C(=O)OC)[C@]5(C)O1)CNC3=O [CEP-1347]
reduction of parasitaemia versus vehicle [6]: did not reach statistical significance | Cmax ([7]; sc, 10 mg/kg): 830 ng/mL | Tmax ([7]; sc, 10 mg/kg): 4.8 h | Cmax ([7]; sc, 30 mg/kg): 730 ng/mL | Tmax ([7]; sc, 30 mg/kg): 6 h | DNAUC(0–t) [7, 11]: 0.98 (0.22) μg · h · mL^−1 · day^−1 | DNAUC(0–t) [7, 12]: 0.45 (0.092) μg · h · mL^−1 · day^−1 | AUC (0–t) [7, 11]: 8.1 (1.8) μg · h · mL | AUC (0–t) [7, 12]: 9.9 (2.1) μg · h · mL

CC(=O)[C@@]1(O)CC[C@H]2[C@@H]3C=C(Cl)C4=CC(=O)[C@@H]5C[C@@H]5[C@]4(C)[C@H]3CC[C@@]21C [Cyproterone]
EC50 (P. falciparum K1 [3]; [13]): 890 nM | EC50 (P. falciparum 3D7 [4]; [14]): 560 nM

Cc1c2oc3c(C)ccc(C(=O)N[C@@H]4C(=O)N[C@H](C(C)C)C(=O)N5CCC[C@H]5C(=O)N(C)CC(=O)N(C)[C@@H](C(C)C)C(=O)O[C@@H]4C)c3nc-2c(C(=O)N[C@@H]2C(=O)N[C@H](C(C)C)C(=O)N3CCC[C@H]3C(=O)N(C)CC(=O)N(C)[C@@H](C(C)C)C(=O)O[C@@H]2C)c(N)c1=O [Dactinomycin] (I: T[dV]P[Sar][NMeV] / II: T[dV]P[Sar][NMeV]; ester I:1-I:C, II:1-II:C; linker I:N-II:N via Actinocin(9to1))
EC50 (P. falciparum K1 [3]; [9]): 1 nM | EC50 (P. falciparum 3D7 [4]; [10]): 0.9 nM

CN(CCCCCCCCCCN(C)C(=O)Oc1cccc([N+](C)(C)C)c1)C(=O)Oc1cccc([N+](C)(C)C)c1 [Demecarium]
EC50 (P. falciparum K1 [3]; [9]): 300 nM | EC50 (P. falciparum 3D7 [4]; [10]): 510 nM

Cc1cc(N)c2ccccc2[n+]1CCCCCCCCCC[n+]1c(C)cc(N)c2ccccc21 [Dequalinium]
EC50 (P. falciparum K1 [3]; [9]): 60 nM | EC50 (P. falciparum 3D7 [4]; [10]): 60 nM

Cc1c(N(C)CS(=O)(=O)O)c(=O)n(-c2ccccc2)n1C [Dipyrone]
EC50 (P. falciparum K1 [3]; [13]): 500 nM | EC50 (P. falciparum 3D7 [4]; [14]): 840 nM

COc1cccc2c1C(=O)c1c(O)c3c(c(O)c1C2=O)C[C@@](O)(C(=O)CO)C[C@@H]3O[C@H]1C[C@H](N)[C@H](O)[C@H](C)O1 [Doxorubicin]
EC50 (P. falciparum K1 [3]; [9]): 200 nM | EC50 (P. falciparum 3D7 [4]; [10]): 210 nM

CS(=O)(=O)CCNCc1ccc(-c2ccc3ncnc(Nc4ccc(OCc5cccc(F)c5)c(Cl)c4)c3c2)o1 [Lapatinib]
EC50 (P. falciparum K1 [3]; [9]): > 7370 nM | EC50 (P. falciparum 3D7 [4]; [10]): 560 nM

C[C@]12O[C@H](C[C@]1(O)CO)n1c3ccccc3c3c4c(c5c6ccccc6n2c5c31)CNC4=O [Lestaurtinib]
EC50 (P. falciparum K1 [3]; [9]): 340 nM | EC50 (P. falciparum 3D7 [4]; [10]): 490 nM | reduction of parasitaemia versus vehicle [6]: did not reach statistical significance | Cmax ([7]; sc, 10 mg/kg): 630 ng/mL | Tmax ([7]; sc, 10 mg/kg): 0.78 h | Cmax ([7]; sc, 30 mg/kg): 2800 ng/mL | Tmax ([7]; sc, 30 mg/kg): 4 h | DNAUC(0–t) [7, 11]: 0.44 (0.072) μg · h · mL^−1 · day^−1 | DNAUC(0–t) [7, 12]: 1.6 (0.47) μg · h · mL^−1 · day^−1 | AUC (0–t) [7, 11]: 2.8 (0.46) μg · h · mL | AUC (0–t) [7, 12]: 23.8 (6.8) μg · h · mL

CC[C@@]1(O)C(=O)OCc2c1cc1n(c2=O)Cc2c-1nc1cc3c(cc1c2CN1CCN(C)CC1)OCCO3 [Lurtotecan]
IC50 ([8]; Plasmodium falciparum): 191 ± 62 nM

CN(Cc1cnc2nc(N)nc(N)c2n1)c1ccc(C(=O)N[C@@H](CCC(=O)O)C(=O)O)cc1 [Methotrexate]
EC50 (P. falciparum K1 [3]; [9]): 20 nM | EC50 (P. falciparum 3D7 [4]; [10]): 10 nM

CN(C)c1ccc2nc3ccc(=[N+](C)C)cc-3sc2c1 [Methylene blue]
EC50 (P. falciparum K1 [3]; [9]): < 0.3 nM | EC50 (P. falciparum 3D7 [4]; [10]): < 0.3 nM

CO[C@@H]1[C@H](N(C)C(=O)c2ccccc2)C[C@H]2O[C@]1(C)n1c3ccccc3c3c4c(c5c6ccccc6n2c5c31)C(=O)NC4 [Midostaurin]
EC50 (P. falciparum 3D7 [4]; [10]): 350 nM

CO[C@@]12[C@H](COC(N)=O)C3=C(C(=O)C(C)=C(N)C3=O)N1C[C@@H]1N[C@@H]12 [Mitomycin]
EC50 (P. falciparum K1 [3]; [9]): 510 nM | EC50 (P. falciparum 3D7 [4]; [10]): 970 nM

C/C=C/C[C@@H](C)C(=O)[C@H]1C(=O)N[C@@H](C(C)C)C(=O)N(C)CC(=O)N(C)[C@@H](CC(C)C)C(=O)N[C@@H](C(C)C)C(=O)N(C)[C@@H](CC(C)C)C(=O)N[C@@H](C)C(=O)N[C@H](C)C(=O)N(C)[C@@H](CC(C)C)C(=O)N(C)[C@@H](CC(C)C)C(=O)N(C)[C@@H](C(C)C)C(=O)N1C [PSC-833, valspodar]
AUCED90 ([6]; blood exposure needed to inhibit parasitaemia at day 7 by 90% vs vehicle): >17.33 μg · h · mL^−1 · day^−1 | ED90 [6]: >200 mg/kg | ED90 ([6]; listed as Valspodar): > 200 mg/kg | Cmax ([7]; po, 50 mg/kg): 1390 ng/mL | Tmax ([7]; po, 50 mg/kg): 3.3 h | Cmax ([7]; po, 100 mg/kg): 1010 ng/mL | Tmax ([7]; po, 100 mg/kg): 5.33 h | Cmax ([7]; po, 200 mg/kg): 910 ng/mL | Tmax ([7]; po, 200 mg/kg): 2 h | DNAUC(0–t) [7, 15]: 0.36 (0.082) μg · h · mL^−1 · day^−1 | DNAUC(0–t) ([7]; target dose 100 mg/kg oral): 0.13 (0.04) μg · h · mL^−1 · day^−1 | DNAUC(0–t) ([7]; target dose 200 mg/kg oral): 0.065 (0.03) μg · h · mL^−1 · day^−1 | AUC (0–t) [7, 15]: 12.90 (2.97) μg · h · mL | AUC (0–t) ([7]; target dose 100 mg/kg oral): 12.26 (4.25) μg · h · mL | AUC (0–t) ([7]; target dose 200 mg/kg oral): 13.05 (6.05) μg · h · mL

N=C(N)c1ccc(OCCCCCOc2ccc(C(=N)N)cc2)cc1 [Pentamidine]
EC50 (P. falciparum K1 [3]; [9]): 50 nM | EC50 (P. falciparum 3D7 [4]; [10]): 220 nM

O=c1[nH]c2ccccc2n1C1CCN(CCCC(c2ccc(F)cc2)c2ccc(F)cc2)CC1 [Pimozide]
EC50 (P. falciparum K1 [3]; [9]): > 12800 nM | EC50 (P. falciparum 3D7 [4]; [10]): 700 nM

COc1ccc(OC)c(Cc2cnc3nc(N)nc(N)c3c2C)c1 [Piritrexim]
IC50 ([8]; Plasmodium falciparum): 11 ± 1 nM

CC[C@H](C)C(=O)O[C@H]1C[C@H](O)C=C2C=C[C@H](C)[C@H](CC[C@@H](O)C[C@@H](O)CC(=O)O)[C@H]21 [Pravastatin]
EC50 (P. falciparum K1 [3]; [9]): 120 nM | EC50 (P. falciparum 3D7 [4]; [10]): 750 nM

CCCNCC(O)COc1ccccc1C(=O)CCc1ccccc1 (stereo not drawn) [Propafenone]
EC50 (P. falciparum K1 [3]; [9]): 330 nM | EC50 (P. falciparum 3D7 [4]; [10]): 1220 nM

CCN(CC)CCN(Cc1ccc(-c2ccc(C(F)(F)F)cc2)cc1)C(=O)Cn1cc(Cc2cnn(C)c2)c(=O)nc1SCc1ccc(F)cc1 [SB-435495]
IC50 [8]: 1130 ± 146 nM

CNC(=O)c1cc(Oc2ccc(NC(=O)Nc3ccc(Cl)c(C(F)(F)F)c3)cc2)ccn1 [Sorafenib]
EC50 (P. falciparum K1 [3]; [9]): 880 nM | EC50 (P. falciparum 3D7 [4]; [10]): 2710 nM

Cc1ccnc(NS(=O)(=O)c2ccc(N)cc2)n1 [Sulfamerazine]
EC50 (P. falciparum K1 [3]; [9]): 10 nM | EC50 (P. falciparum 3D7 [4]; [10]): 10 nM

CN1CCN(CC/C=C2/c3ccccc3Sc3ccc(S(=O)(=O)N(C)C)cc32)CC1 [Thiothixene]
EC50 (P. falciparum K1 [3]; [9]): 20 nM | EC50 (P. falciparum 3D7 [4]; [10]): 40 nM
